Here are results for two molecules from ChEMBL document CHEMBL5150017, “Mechanism of Action and Structure-Activity Relationship of α-Conotoxin Mr1.1 at the Human α9α10 Nicotinic Acetylcholine Receptor” (J Med Chem, 2022).

For experiment [1], the target named is Neuronal acetylcholine receptor; alpha9/alpha10 (Homo sapiens, UniProt Q9GZZ6+Q9UGM1). The experiment can be described thus: Antagonist activity at human alpha9alpha10 nAChR expressed in Xenopus laevis oocytes assessed as inhibition of ACh-induced current amplitude at -80 mV holding potential by two-electrode voltage clamp method. Type of experiment: cell-based, Oocyte.

Experiment [2] deals with T1, Neuronal acetylcholine receptor; alpha9/alpha10 (Homo sapiens) (UniProt Q9UGM1+Q9GZZ6). As to the kind of experiment: Antagonist activity at human alpha9alpha10 nAChR expressed in Xenopus laevis oocytes assessed as inhibition of ACh-induced current amplitude at -80 mV holding potential at 1 uM by two-electrode voltage clamp method. The experiment is classed as cell-based. The note with it: Oocyte.

The target in experiment [3] is T1, Neuronal acetylcholine receptor; alpha9/alpha10 (Homo sapiens). As to the kind of experiment: Antagonist activity at human alpha9alpha10 nAChR expressed in Xenopus laevis oocytes assessed as inhibition of ACh-induced current amplitude at -80 mV holding potential at 10 uM by two-electrode voltage clamp method. The experiment is classed as cell-based. The following applies: Oocyte. (In general: Two-electrode voltage clamp is typically applied to oocytes expressing channels or transporters.)

Neuronal acetylcholine receptor; alpha9/alpha10, sequence (Q9UGM1 whole entry): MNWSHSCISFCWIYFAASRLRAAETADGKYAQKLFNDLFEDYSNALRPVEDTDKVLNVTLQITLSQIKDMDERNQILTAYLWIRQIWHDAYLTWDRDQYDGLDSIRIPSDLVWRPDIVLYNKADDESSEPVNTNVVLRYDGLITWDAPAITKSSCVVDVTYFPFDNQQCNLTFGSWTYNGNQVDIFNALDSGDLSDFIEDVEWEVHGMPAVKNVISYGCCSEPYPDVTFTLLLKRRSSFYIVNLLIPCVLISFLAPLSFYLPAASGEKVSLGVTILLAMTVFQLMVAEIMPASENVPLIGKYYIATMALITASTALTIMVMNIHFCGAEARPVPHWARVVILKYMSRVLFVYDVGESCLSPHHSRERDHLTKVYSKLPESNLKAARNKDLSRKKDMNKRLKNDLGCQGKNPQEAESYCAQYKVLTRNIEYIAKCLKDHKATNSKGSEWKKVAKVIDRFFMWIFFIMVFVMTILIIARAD
Neuronal acetylcholine receptor; alpha9/alpha10, sequence (Q9GZZ6 whole entry): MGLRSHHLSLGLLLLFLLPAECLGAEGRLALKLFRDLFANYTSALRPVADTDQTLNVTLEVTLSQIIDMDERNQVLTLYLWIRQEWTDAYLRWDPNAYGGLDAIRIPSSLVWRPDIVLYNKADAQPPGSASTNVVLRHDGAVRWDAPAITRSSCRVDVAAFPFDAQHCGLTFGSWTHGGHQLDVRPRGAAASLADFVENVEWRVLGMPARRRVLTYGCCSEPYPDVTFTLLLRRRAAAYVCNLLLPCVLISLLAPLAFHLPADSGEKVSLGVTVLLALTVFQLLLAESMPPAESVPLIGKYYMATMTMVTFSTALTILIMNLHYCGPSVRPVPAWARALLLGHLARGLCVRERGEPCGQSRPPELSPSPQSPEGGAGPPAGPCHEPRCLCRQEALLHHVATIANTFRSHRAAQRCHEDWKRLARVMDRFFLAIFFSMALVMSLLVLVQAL

Broadly, the IC50 is the concentration that gives 50% inhibition. Regarding `N=C(N)NCCC[C@H](NC(=O)[C@H](CS)NC(=O)[C@H](CCCNC(=N)N)NC(=O)[C@H](Cc1ccc(O)cc1)NC(=O)[C@H](CCCNC(=N)N)NC(=O)[C@H](CS)NC(=O)[C@H](CCCNC(=N)N)NC(=O)[C@@H]1CCCN1C(=O)[C@H](CC(=O)O)NC(=O)[C@H](CO)NC(=O)[C@H](CS)NC(=O)[C@H](CS)NC(=O)CN)C(=O)O`, in experiment [1], the IC50 was found to be 500 nM.

As usually defined, the inhibition is how much of the control response was suppressed. Take `CC[C@H](C)[C@@H]1NC(=O)[C@H](CCC(=O)O)NC(=O)[C@@H]2CCCN2C(=O)[C@H](Cc2cnc[nH]2)NC(=O)[C@H](CC(=O)O)NC(=O)[C@H](Cc2ccc(O)cc2)NC(=O)[C@H](CC(N)=O)NC(=O)[C@@H]2CSSC[C@H](NC(=O)CN)C(=O)N[C@@H](CSSC[C@@H](C(N)=O)NC1=O)C(=O)N[C@@H](CO)C(=O)N[C@@H](CC(=O)O)C(=O)N1CCC[C@H]1C(=O)N[C@@H](CCCNC(=N)N)C(=O)N2`: the inhibition came to 20% in experiment [2] and 0% in experiment [3].
